Test results from PubChem BioAssay AID1963831 (Molecular Pharmacology Branch, DTP, NCI, 2024).

Test system: 889142-216-R-J1-PDC complex spheroid viability
Experiment: Anticancer human tumor 889142-216-R-J1-PDC patient-derived bladder carcinoma cell line growth inhibition [POLQ]
Details: for IC50: curve of first compound; for viability, T/C: stronger effect = lower value
Procedure: Multicellular complex tumor spheroid response to Polymerase (POL) inhibitors (novobiocin, ART-558, RP6685) in combination with a variety of drugs and investigational agents in selected tumor cell lines
The POL inhibitors (novobiocin, ART-558, and RP6685) were evaluated both individually and in combination with standard of care and investigational anticancer small molecules within a complex spheroid model of solid tumors. . Complex spheroids include a stromal component modeled by human endothelial cells (HUVEC) and fibroblasts modeled by human mesenchymal stem cells (MSCs). The concentration ranges selected for each drug and investigational agent were based upon clinically achievable concentrations if the clinical Cmax of the agent was known.
Compounds. The drugs and investigational agents: novobiocin (NSC847541), ART-558 (NSC835418), RP-6685 (NSC848927), peposertib (NSC802822), ceralasertib (NSC780249), elimusertib (NSC800525), camonsertib (NSC841442), AZD-1390 (NSC803789), olaparib (NSC753686), talazoparib (NSC767125), rucaparib (NSC756644), sotorasib (NSC818433), MRTX-1133 (NSC836407), SN-38 (NSC673596), topotecan (NSC609699), epotoside (NSC141540), doxorubicin (NSC123127), gemcitabine (NSC613327), 5-fluorouracil (NSC19893), paclitaxel (NSC125973), vemurafenib (NSC761431), MSA-2 (NSC828583), SN-011 (NSC837082), adavosertib (NSC754352), prexasertib (NSC758257), carboplatin (NSC241240) and oxaliplatin (NSC266046), were obtained from the National Cancer Institute (NCI) Developmental Therapeutics Program Chemical Repository (21). The FDA-approved anticancer drug set is available from the Developmental Therapeutics Program at https://dtp.cancer.gov/organization/dscb/obtaining/. […] The stock solutions were prepared in dimethyl sulfoxide (DMSO, Sigma-Aldrich, St. Louis, MO, cat. D2650), except for the platinum compounds which were prepared in saline (Quality Biological, Gaithersburg, MD, cat. 114-055-101), at 800-fold the tested concentration and stored at -70 degrees C prior to their use. All drugs and investigational agents were tested over a range starting from a high concentration at or near the clinical Cmax and decreasing in half-log increments. If the clinical Cmax for an agent had not been determined, the highest concentration tested was 10 microM, except for SN-38, which was tested at a high concentration of 1 microM.
Cell Culture. All cells were maintained in an incubator at 37 degrees C and 5% CO2 with 95% humidity. The PDC lines were cultured according to standard operating procedures established by the NCI PDMR (https://pdmr.cancer.gov). Table 3 of the manuscript, lists the cell lines along with the number of the three cell types plated to form the mct-spheroids and media for tumor cell growth. After thawing, all PDC lines, except 997537-175-T-J1-PDC and 415267-285-R-J2-PDC, were cultured in Matrigel-coated flasks prepared with a working solution of 1X Ham's F-12 nutrient mix, without supplementation (Thermo Fisher Scientific, cat. 11765054), 100 U/mL penicillin-streptomycin (Thermo Fisher Scientific, cat. 15140122), and 2.5% Matrigel (Corning Inc., Corning, NY, cat. 354248) for the first three passages. The two PDC lines 997537-175-T-J1-PDC and 415267-285-R-J2-PDC were cultured on uncoated flasks. The 857933-349-R-J2-PDC line was cultured in 6C/Colon 1B media containing advanced DMEM/F-12 (Thermo Fisher Scientific, cat. 12634028), 10 mM HEPES (Thermo Fisher Scientific, cat. 15630080), 1X GlutaMAX supplement (Thermo Fisher Scientific, cat. 35050061), 0.1 mg/mL primocin (InvivoGen, San Diego, CA, cat. ant-pm-2), 10% defined fetal bovine serum, heat inactivated (HyClone Laboratories Inc., Logan, UT, cat. SH30070.03HI), 50% L-WRN conditioned media (ATCC, cat. CRL-3276), 1.25 mM N-Acetyl-L-cysteine (Sigma-Aldrich, cat. A9165), 10 mM nicotinamide (Sigma-Aldrich, cat. N0636), 1X B-27 supplement (Thermo Fisher Scientific, cat. 17504044), 1X N-2 supplement (Thermo Fisher Scientific, cat. […]

[1] = second compound 0.0316 µM, first compound 0.0316 µM
[2] = second compound 0.0316 µM, first compound 0.1 µM
[3] = second compound 0.0316 µM, first compound 0.316 µM
[4] = second compound 0.0316 µM, first compound 1 µM
[5] = second compound 0.0316 µM, first compound 3.16 µM
[6] = second compound 0.0316 µM, first compound 10 µM
[7] = second compound 0.1 µM, first compound 0.0316 µM
[8] = second compound 0.1 µM, first compound 0.1 µM
[9] = second compound 0.1 µM, first compound 0.316 µM
[10] = second compound 0.1 µM, first compound 1 µM
[11] = second compound 0.1 µM, first compound 3.16 µM
[12] = second compound 0.1 µM, first compound 10 µM
[13] = second compound 0.316 µM, first compound 0.0316 µM
[14] = second compound 0.316 µM, first compound 0.1 µM
[15] = second compound 0.316 µM, first compound 0.316 µM
[16] = second compound 0.316 µM, first compound 1 µM
[17] = second compound 0.316 µM, first compound 3.16 µM
[18] = second compound 0.316 µM, first compound 10 µM
[19] = second compound 1 µM, first compound 0.0316 µM
[20] = second compound 1 µM, first compound 0.1 µM
[21] = second compound 1 µM, first compound 0.316 µM
[22] = second compound 1 µM, first compound 1 µM
[23] = second compound 1 µM, first compound 3.16 µM
[24] = second compound 1 µM, first compound 10 µM
[25] = second compound 3.16 µM, first compound 0.0316 µM
[26] = second compound 3.16 µM, first compound 0.1 µM
[27] = second compound 3.16 µM, first compound 0.316 µM
[28] = second compound 3.16 µM, first compound 1 µM
[29] = second compound 3.16 µM, first compound 3.16 µM
[30] = second compound 3.16 µM, first compound 10 µM
[31] = second compound 10 µM, first compound 0.0316 µM
[32] = second compound 10 µM, first compound 0.1 µM
[33] = second compound 10 µM, first compound 0.316 µM
[34] = second compound 10 µM, first compound 1 µM
[35] = second compound 10 µM, first compound 3.16 µM
[36] = second compound 10 µM, first compound 10 µM
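Also: spheroids exposed to compounds for seven days.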
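For viability, T/C in this document: 100% = DMSO vehicle control viability.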

Compound: COc1cc(C2c3cc4c(cc3C(OC3OC5COC(C)OC5C(O)C3O)C3COC(=O)C23)OCO4)cc(OC)c1O (centres undefined) + COC1C(OC(N)=O)C(O)C(Oc2ccc3c(O)c(NC(=O)c4ccc(O)c(CC=C(C)C)c4)c(=O)oc3c2C)OC1(C)C
- IC50 (second compound 0.0316 µM): > 10000 nM
- IC50 (second compound 0.1 µM): > 10000 nM
- IC50 (second compound 0.316 µM): > 10000 nM
- IC50 (second compound 1 µM): 10000 nM
- IC50 (second compound 3.16 µM): > 10000 nM
- IC50 (second compound 10 µM): > 10000 nM
- viability, T/C [1]: 93.7%
- viability, T/C [2]: 81.6%
- viability, T/C [3]: 52%
- viability, T/C [4]: 57.3%
- viability, T/C [5]: 74%
- viability, T/C [6]: 52.9%
- viability, T/C [7]: 87.1%
- viability, T/C [8]: 87.2%
- viability, T/C [9]: 63%
- viability, T/C [10]: 56.3%
- viability, T/C [11]: 70.4%
- viability, T/C [12]: 50.4%
- viability, T/C [13]: 110%
- viability, T/C [14]: 88.8%
- viability, T/C [15]: 66.1%
- viability, T/C [16]: 56.2%
- viability, T/C [17]: 60.3%
- viability, T/C [18]: 52.9%
- viability, T/C [19]: 91.5%
- viability, T/C [20]: 99.9%
- viability, T/C [21]: 53.4%
- viability, T/C [22]: 61%
- viability, T/C [23]: 60.4%
- viability, T/C [24]: 56%
- viability, T/C [25]: 94.9%
- viability, T/C [26]: 96.9%
- viability, T/C [27]: 75.3%
- viability, T/C [28]: 51%
- viability, T/C [29]: 58.1%
- viability, T/C [30]: 52.9%
- viability, T/C [31]: 108%
- viability, T/C [32]: 90.2%
- viability, T/C [33]: 56.7%
- viability, T/C [34]: 48.9%
- viability, T/C [35]: 64.5%
- viability, T/C [36]: 55.3%

Compound: COc1cccc2c1C(=O)c1c(O)c3c(c(O)c1C2=O)CC(O)(C(=O)CO)CC3OC1CC(N)C(O)C(C)O1 (centres undefined) + COC1C(OC(N)=O)C(O)C(Oc2ccc3c(O)c(NC(=O)c4ccc(O)c(CC=C(C)C)c4)c(=O)oc3c2C)OC1(C)C
- IC50 (second compound 0.0316 µM): 170 nM
- IC50 (second compound 0.1 µM): 164 nM
- IC50 (second compound 0.316 µM): 173 nM
- IC50 (second compound 1 µM): 173 nM
- IC50 (second compound 3.16 µM): 254 nM
- IC50 (second compound 10 µM): 219 nM
- viability, T/C [1]: 59.9%
- viability, T/C [2]: 68.7%
- viability, T/C [3]: 33.4%
- viability, T/C [4]: 2.42%
- viability, T/C [5]: 0.42%
- viability, T/C [6]: 0.92%
- viability, T/C [7]: 53.4%
- viability, T/C [8]: 67.9%
- viability, T/C [9]: 36%
- viability, T/C [10]: 4.22%
- viability, T/C [11]: 0.75%
- viability, T/C [12]: 0.62%
- viability, T/C [13]: 56.7%
- viability, T/C [14]: 67.5%
- viability, T/C [15]: 36.8%
- viability, T/C [16]: 1.29%
- viability, T/C [17]: 0.94%
- viability, T/C [18]: 0.7%
- viability, T/C [19]: 60.6%
- viability, T/C [20]: 63.1%
- viability, T/C [21]: 37.3%
- viability, T/C [22]: 3.64%
- viability, T/C [23]: 0.4%
- viability, T/C [24]: 1.06%
- viability, T/C [25]: 62.3%
- viability, T/C [26]: 59.1%
- viability, T/C [27]: 47.5%
- viability, T/C [28]: 2.54%
- viability, T/C [29]: 0.84%
- viability, T/C [30]: 0.98%
- viability, T/C [31]: 62%
- viability, T/C [32]: 62.5%
- viability, T/C [33]: 44.3%
- viability, T/C [34]: 2.05%
- viability, T/C [35]: 1.06%
- viability, T/C [36]: 0.92%
